Data: patent US20260256872A1, “PEPTIDE FOR TREATING DEMYELINATING DISEASES AND USE THEREOF” (KINE SCIENCES Co., Ltd., priority 2023, published 2026)

What was measured:
CIDP animal model [1] = assay: Nerve conduction studies (MNCV, CMAP, SNCV, SNAP) in CIDP animal model; type: in vivo, Lewis rats
Protocol: (§1) Specifically, male Lewis rats (7 weeks old) were obtained and acclimatized for one week. Thereafter, solution A was prepared by dissolving s-palm PO, in which palmitic acid is conjugated to cysteine at the 181st amino acid of peripheral myelin PO protein described in <Example 2>, in saline at a concentration of 2 mg/mL. Solution B was prepared by dissolving Mycobacterium tuberculosis in Freund's adjuvant at a concentration of 5 mg/mL. A sterile 25 mL tube was placed in an ice box, and solutions A and B were mixed at a ratio of 1:1 and homogenized for 15 minutes using a homogenizer to prepare an emulsion. The emulsion (200 μL) was then administered by subcutaneous injection at the base of the rat tail to induce the disease. […] The KINE-101 administration groups received KINE-101 dissolved in DPBS at doses of 6.25, 12.5, 25, and 37.5 mg/kg by intravenous injection (I.V.) three times per week for 15 days, starting the day after disease induction. The IVIg administration group received IVIg at a dose of 400 mg/kg once daily for 5 days starting the day after disease induction. The experiment was terminated on day 15 after disease induction.
(§2) Specifically, KINE-101 or IVIg was administered by the method described in Example <3-1>, and after completion of the experiment, the animals were anesthetized with 1.5% isoflurane and examined. The fur from the distal region of the hind limb to the upper region was removed, and nerve conduction studies for measuring motor and sensory nerves were performed using a Nicolet VikingQuest device as the electrophysiological examination instrument. For the nerve conduction study, a needle electrode was placed on the motor nerve or sensory nerve, and a reference electrode was placed on the gastrocnemius muscle. The stimulating cathode was positioned in the middle of the posterior thigh near the recording electrode, and stimulation was applied at both distal and proximal sites. Motor nerve conduction velocity (MNCV) and compound muscle action potential (CMAP) of the motor nerve, as well as sensory nerve conduction velocity (SNCV) and sensory nerve action potential (SNAP) of the sensory nerve, were measured.

[2] = system: acquired peripheral nerve injury animal model; assay: Histopathological examination of nerve tissues (toluidine blue, TEM), acquired peripheral nerve injury animal model; type: in vivo, C57BL/6 mice; settings: for myelinated axons and unmyelinated fibers: vs acquired peripheral nerve injury group
From the text: (§3) Specifically, a uniform nerve injury model can be obtained by damaging the nerve emerging from the spinal cord at a predetermined intensity for a certain period of time, and since both the intensity and duration can be controlled, it is possible to establish a nerve injury model that persists for a desired period. For the disease induction groups, the boundary region between the gluteal muscle and the femoral muscle of the mouse was incised to expose the sciatic nerve. The nerve was then grasped and injured for a predetermined period using a surgical tool (MacJam) at one of three intensities (stages 1, 2, or 3; stage 3 for 3 seconds was used as the reference), after which the incision was sutured to establish an acquired peripheral nerve injury animal model. From the day following disease induction, KINE-101 dissolved in DPBS was administered intravenously (I.V.) at doses of 10, 50, and 100 mg/kg three times per week for a total of four weeks.
Specifically, KINE-101 was administered to the acquired peripheral nerve injury animal model for four weeks according to the method described in Example <4-1>, and the experimental animals were sacrificed six weeks after the start of administration. Thereafter, peripheral nerve tissues of the hind limbs were isolated and fixed in a 4% paraformaldehyde solution containing 2.5% glutaraldehyde. After ethanol dehydration, the tissues were embedded in epoxy resin and semi-thin sections (1 μm) were prepared. The semi-thin sections were stained with toluidine blue for 5-10 seconds and observed under a light microscope. In addition, ultra-thin sections (65 nm) were prepared, and tissue cross-sections were observed using a transmission electron microscope (TEM) to examine abnormalities of myelin (demyelination, dysmyelination, and hypermyelination).

[3] = system: chronic inflammatory demyelinating polyneuropathy (CIDP) animal model; assay: Clinical score in CIDP animal model (EAN P0(180-199)); type: in vivo, Lewis rats
Protocol: Female Lewis rats (7 weeks old) were obtained and acclimatized for one week. Thereafter, solution A was prepared by dissolving peripheral myelin PO protein (180-199) in 0.9% saline at a concentration of […], and solution B was prepared by dissolving Mycobacterium tuberculosis in Freund's incomplete adjuvant at a concentration of […]. A sterile 50 ml tube was placed in an ice box, and solutions A and B were mixed at a ratio of 1:1. The mixture was then homogenized using a homogenizer for 15 minutes to prepare an emulsion. The prepared emulsion was loaded into a 1 ml syringe, the syringe needle was replaced with a 25G needle, and the syringe was stored in an ice box containing ice until use. The emulsion (200 μL) was subcutaneously (S.C.) injected into the tail of the Lewis rats to induce the disease. […]
In order to examine the progression of CIDP following administration of KINE-101, the severity of CIDP over time after administration of KINE-101 to the CIDP animal model was evaluated and measured using a clinical score.
Specifically, during administration of KINE-101 by the method described in Example <2-1>, the symptoms were evaluated on a scale of 0 to 5 according to the criteria shown in Table 3 below. […] The severity of CIDP was quantified by calculating the average value of the results evaluated for each individual.

[4] = system: acquired peripheral nerve injury animal model; assay: Nerve conduction studies in acquired peripheral nerve injury animal model; type: in vivo, C57BL/6 mice
Protocol: as §2, §3
Specifically, mice were anesthetized with 1.5% isoflurane at weeks 0, 3, and 6 after administration of KINE-101 according to the method described in Example <4-1>, and MNCV, CMAP, SNCV, and SNAP were measured by the same method described in Example <3-4> to determine whether motor nerves and sensory nerves were damaged.

[5] = system: acquired peripheral nerve injury animal model; assay: Rotarod test in acquired peripheral nerve injury animal model; type: in vivo, C57BL/6 mice; settings: weeks 3 and 6; all KINE-101-treated groups (10, 50, 100 mg/kg); vs Injury Ctr
From the text: as §3, with “From the day following disease induction, KINE-101 dissolved in DPBS was administered intravenously (I.V.) at doses of 10, 50, and 100 mg/kg three times per week for a total of four weeks.” left out
Demyelinating diseases are known to be accompanied by symptoms such as muscle weakness and impaired balance. […] Specifically, the phenotype of the experimental animals was analyzed using rotarod, grip strength, and tail suspension tests. […] Using a rotarod apparatus (ROTA ROD, LE8205, Panlab), the time during which the animal remained on the rotating rod was measured for 2 minutes and 30 seconds at a fixed speed of 8 rpm. For each evaluation, three trials were conducted, and the maximum duration among the trials was analyzed.

CIDP animal model [6] = assay: Clinical score in CIDP animal model (S-palmP0(180-199)), KINE-101 vs IVIg; type: in vivo, Lewis rats
Treg cells = assay: Treg cell proportion and activation in lymph nodes at nerve injury site (flow cytometry); type: in vivo, C57BL/6 mice
From the text: as §3
Specifically, KINE-101 was administered to the acquired peripheral nerve injury animal model for four weeks according to the method described in Example <4-1>, and the experimental animals were sacrificed six weeks after the start of administration. Thereafter, immune cells were isolated from the lymph nodes at the nerve injury site of the experimental animals. The isolated immune cells were subjected to fluorescent staining for CD4 and Foxp3 proteins, and the proportion of Treg cells among CD4 T cells was determined by flow cytometry. In addition, fluorescent staining for the CTLA4 protein, which is an activation marker of Treg cells, was performed, and the level of CTLA4 expression in Treg cells was compared by flow cytometric analysis to evaluate the degree of activation.

[7] = Body weight change in CIDP animal model (S-palmP0(180-199)); type: in vivo, Lewis rats
Protocol: as §1
Specifically, body weight was measured during administration of KINE-101 or IVIg by the method described in Example <3-1>, and the change in body weight was calculated relative to the body weight before disease induction (Day 0).

[8] = system: chronic inflammatory demyelinating polyneuropathy (CIDP) animal model; assay: Demyelination in peripheral nerve tissues (TEM), CIDP animal model; type: in vivo, Lewis rats; settings: KINE-101 50 mg/kg I.V.; hind limb peripheral nerve
Protocol: Female Lewis rats (7 weeks old) were obtained and acclimatized for one week. Thereafter, solution A was prepared by dissolving peripheral myelin PO protein (180-199) in 0.9% saline at a concentration of […], and solution B was prepared by dissolving Mycobacterium tuberculosis in Freund's incomplete adjuvant at a concentration of […]. A sterile 50 ml tube was placed in an ice box, and solutions A and B were mixed at a ratio of 1:1. The mixture was then homogenized using a homogenizer for 15 minutes to prepare an emulsion. The prepared emulsion was loaded into a 1 ml syringe, the syringe needle was replaced with a 25G needle, and the syringe was stored in an ice box containing ice until use. The emulsion (200 μL) was subcutaneously (S.C.) injected into the tail of the Lewis rats to induce the disease. […] From the day following disease induction, KINE-101 dissolved in DPBS was intravenously (I.V.) administered three times per week at doses of 1, 5, 25, and 50 mg/kg.
Tissue cross-sections were then observed using a transmission electron microscope (TEM) to evaluate the degree of myelin loss. In addition, comparisons were made with the normal group (Normal) and the CIDP-induced group (EAN PO (180-199)).

[9] = all KINE-101-treated groups (6.25-37.5 mg/kg I.V.), after day 15
[10] = all KINE-101-treated groups, IVIg 400 mg/kg
[11] = week 3, KINE-101 10 mg/kg I.V. three times per week for four weeks
[12] = week 3, KINE-101 50 mg/kg I.V. three times per week for four weeks
[13] = week 6, KINE-101 50 mg/kg I.V. three times per week for four weeks
[14] = weeks 3 and 6, KINE-101-treated groups (10, 50, 100 mg/kg)

PSPPSPPSP [KINE-101, trimeric polymer prepared using a PSP fragment (PSP monomer)]
MNCV and CMAP (CIDP animal model [1]; KINE-101 12.5 mg/kg I.V.): most pronounced effect | SNCV and SNAP (CIDP animal model [1]; KINE-101 12.5 mg/kg I.V.): most pronounced effect | compound muscle action potential (CMAP) (CIDP animal model [1]; [9]): higher MNCV and CMAP values compared with the negative control group | motor nerve conduction velocity (MNCV) (CIDP animal model [1]; [9]): higher MNCV and CMAP values compared with the negative control group | sensory nerve action potential (SNAP) (CIDP animal model [1]; [9]): higher SNCV and SNAP values compared with the negative control group | sensory nerve conduction velocity (SNCV) (CIDP animal model [1]; [9]): higher SNCV and SNAP values compared with the negative control group | MNCV and CMAP vs IVIg-treated group (CIDP animal model [1]; [10]): effects similar to or superior to those of the IVIg-treated group | SNCV and SNAP vs IVIg-treated group (CIDP animal model [1]; [10]): effects similar to those of the IVIg-treated group | myelinated axons and unmyelinated fibers ([2]; KINE-101 50 mg/kg): marked increase in myelinated axons and a decrease in unmyelinated fibers | myelinated axons and unmyelinated fibers ([2]; KINE-101 100 mg/kg): marked increase in myelinated axons and a decrease in unmyelinated fibers | myelination ([2]; KINE-101-treated groups (10, 50, 100 mg/kg), six weeks after start of administration, vs Injury Ctr): improved myelination | number of large myelinated fibers and small unmyelinated fibers ([2]; KINE-101-treated groups, six weeks after start of administration): an increase in the number of large myelinated fibers and a decrease in the number of small unmyelinated fibers | clinical score ([3]; KINE-101 50 mg/kg I.V. three times per week): lowest clinical score | clinical score (CIDP symptoms) ([3]; all KINE-101-treated groups (1, 5, 25, 50 mg/kg I.V. three times per week), vs CIDP-induced group): alleviation of symptoms after day 15 | CMAP [4, 11]: 11.0±2.3 mV | SNCV [4, 11]: 27.7±2.8 m/s | MNCV [4, 12]: 46.7±7.4 m/s | SNAP [4, 12]: 11.2±3.1 μV | SNCV [4, 12]: 27.6±2.2 m/s | SNCV ([4]; week 3, KINE-101 100 mg/kg I.V. three times per week for four weeks): 28.6±3.7 m/s | CMAP [4, 13]: 32.9±4.0 mV | MNCV [4, 13]: 63.9±7.6 m/s | SNAP [4, 13]: 12.3±2.9 μV | SNCV [4, 13]: 27.9±3.1 m/s | MNCV ([4]; week 6, KINE-101 100 mg/kg I.V. three times per week for four weeks): 59.0±4.5 m/s | MNCV ([4]; week 6, KINE-101-treated groups (10, 50, 100 mg/kg)): increased | CMAP [4, 14]: increased compared with those in the acquired peripheral nerve injury group | SNAP [4, 14]: increased compared with those in the acquired peripheral nerve injury group | muscle strength and balance (rotarod) [5]: improved muscle strength and balance | clinical score (CIDP animal model [6]; KINE-101 25 mg/kg I.V. three times per week): lowest clinical score | clinical score (CIDP animal model [6]; all KINE-101-treated groups (6.25 mg/kg to 37.5 mg/kg I.V. three times per week), day 15 after disease induction): lower clinical scores on day 15 after disease induction compared with the negative control group | CTLA4 expression in Treg cells (activation marker) (Treg cells; KINE-101 50 mg/kg): increased to a statistically significant level | proportion of Treg cells among CD4 T cells in lymph nodes at nerve injury site (Treg cells; KINE-101 50 mg/kg): increased to a statistically significant level | CTLA4 expression in Treg cells (activation marker) (Treg cells; KINE-101-treated groups (10, 50, 100 mg/kg)): increased | proportion of Treg cells among CD4 T cells in lymph nodes at nerve injury site (Treg cells; KINE-101-treated groups (10, 50, 100 mg/kg), six weeks after start of administration): increased | body weight improvement effect ([7]; KINE-101 12.5 mg/kg I.V.): most pronounced body weight improvement effect | body weight gain vs negative control group ([7]; KINE-101-treated groups (6.25-37.5 mg/kg I.V.)): greater body weight gain compared with the negative control group | body weight vs before disease induction (Day 0) ([7]; KINE-101-treated groups, day 15 after disease induction): maintained significantly higher body weight than that before disease induction | demyelination (degree of myelin loss, TEM) [8]: demyelination was suppressed similarly to that observed in the normal group
